Tests used:
aromatase in HepG2 cells = assay: In-cell aromatase assay in HepG2 cells; format: cell-based; conditions: 24 h, FIG. 6C
Method: (§1) To evaluate the effect of chalcones on aromatase activity, we performed both in vitro assay and in-cell assay with chalcones. […] In addition, MCF-7 aro cells, which are stable aromatase-expressing breast cancer cell line, were incubated with chalcones.
(§2) Referring to FIG. 6, the effect of Compound No. 1-9 on aromatase activity was investigated by both in vitro inhibition assay (A) and in-cell aromatase assay (B; MCF-7 aro cells, C; HepG2 cells, D; SK-BR-3 cells). Referring to FIG. 6A, aromatase inhibition study with Compound No. 1-9 was performed on a human placental microsomal aromatase preparation using the assay procedures described in (9). Referring to FIG. 6B, MCF-7 aro cells, which are stable aromatase-expressing cell line generated in our laboratory (10), were incubated with 10 μM of Compound No. 1-9. After 24 h incubation, aromatase activity was measured by [3H] H20 release method. HepG2 cells, as shown in FIG. 6C and SK-BR-3 cells as shown in FIG. 6D were also incubated with Compound No. 1-9 for 24 h, and aromatase activities were measured. Values represent the mean±SD.

[1] = tested on: aromatase in SK-BR-3 cells; assay: In-cell aromatase assay in SK-BR-3 cells; format: cell-based; conditions: 24 h, FIG. 6D
Method: as §1, §2

[2] = target: T1, aromatase in MCF-7 aro cells (Homo sapiens, UniProt P11511); assay: In-cell aromatase assay ([3H] H2O release) in MCF-7 aro cells; format: cell-based; conditions: 10 μM, 24 h, FIG. 6B
T1 construct: expressed in transfected cells
T1 sequence (P11511 1-503): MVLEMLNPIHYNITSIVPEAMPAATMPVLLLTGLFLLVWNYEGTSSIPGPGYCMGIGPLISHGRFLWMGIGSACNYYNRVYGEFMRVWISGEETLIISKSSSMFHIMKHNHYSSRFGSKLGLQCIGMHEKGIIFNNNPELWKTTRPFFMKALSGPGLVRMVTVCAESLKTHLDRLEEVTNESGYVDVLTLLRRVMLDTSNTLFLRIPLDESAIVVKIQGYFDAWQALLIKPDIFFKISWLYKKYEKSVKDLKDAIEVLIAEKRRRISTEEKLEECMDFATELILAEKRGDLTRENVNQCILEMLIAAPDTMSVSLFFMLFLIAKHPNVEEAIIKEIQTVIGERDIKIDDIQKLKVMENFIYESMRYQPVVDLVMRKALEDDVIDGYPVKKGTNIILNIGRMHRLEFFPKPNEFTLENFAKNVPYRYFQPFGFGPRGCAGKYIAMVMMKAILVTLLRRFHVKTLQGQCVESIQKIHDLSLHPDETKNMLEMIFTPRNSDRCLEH
Method: as §1, §2

[3] = target: T2, human placental microsomal aromatase (Homo sapiens, UniProt P11511); assay: In vitro aromatase inhibition assay on human placental microsomal aromatase preparation; format: biochemical; conditions: increasing concentrations (200 pM-200 mM), FIG. 6A
T2 construct: performed on a human placental microsomal aromatase preparation; from tissue; host or cells: human placenta, microsomes
T2 sequence (P11511 1-503): T1 sequence (P11511 1-503)
Method: as §1, §2

COc1cccc(/C=C/C(=O)c2ccc(O)cc2O)c1OC [Compound No. 1-9, 2′,4′-Dihydroxy-2,3-dimethoxychalcone]
Effect on aromatase activity, HepG2 cells (aromatase in HepG2 cells): inhibited aromatase activity in a dose-dependent manner
Effect on aromatase activity, SK-BR-3 cells [1]: inhibited aromatase activity in a dose-dependent manner
Effect on aromatase activity, in-cell assay, MCF-7 aro cells [2]: did not inhibit aromatase activity
Effect on aromatase activity, in vitro assay [3]: did not inhibit aromatase activity
